Experimental data taken from US20250313574A1, “SIALIC ACID DERIVATIVES AND METHODS OF USING SAME” (EISAI R&D MANAGEMENT CO., LTD., priority 2022, published 2025).

Key:
[1] = target: Recombinant human CD33 protein (Homo sapiens (Human), UniProt P20138); test: CD33 competitive binding assay for HTS drug screen (fluorescent multivalent sialic acid probe)
Summary of the method: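 Recombinant human CD33, coated overnight at 4° C from 10 μg/ml in pH 5.5 acetate, was preincubated briefly with compound. It was then exposed to a multivalent neutravidin/FITC/sialic acid analog A-375 probe (final 5 μM neutravidin, 15 μM A-375, 5 μM FITC) for 30 min at room temperature. After washing, bound FITC fluorescence was read.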

[2] = target: Recombinant Human Siglec-3/CD33 protein (His-CD33) (Homo sapiens (Human), UniProt P20138); test: Differential scanning fluorimetry (DSF) thermal shift assay; format: binding; conditions: difference in thermal melt of CD33 protein (0.5 μM) with 50 μM compound
Sequence of Recombinant Human Siglec-3/CD33 protein (His-CD33) (P20138 18-259): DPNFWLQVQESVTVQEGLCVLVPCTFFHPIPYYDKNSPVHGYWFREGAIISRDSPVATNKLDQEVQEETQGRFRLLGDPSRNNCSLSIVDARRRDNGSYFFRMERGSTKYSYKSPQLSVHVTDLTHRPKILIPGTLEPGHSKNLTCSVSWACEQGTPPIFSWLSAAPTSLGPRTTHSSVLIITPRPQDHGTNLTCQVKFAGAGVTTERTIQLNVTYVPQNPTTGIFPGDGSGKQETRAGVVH

Sequence of Recombinant human CD33 protein (P20138 18-259): as above

SMILES	EC50 [1] [nM]	DSF (dTmD) [2] [°C]
CC(=O)NC1[C@H]([C@H](O)[C@H](O)CNC(=O)c2cc(C)c(O)c(C)c2)O[C@@](CC(=O)N2CCOC[C@]23CCN(C(=O)OC(C)(C)C)C3)(C(=O)O)C[C@@H]1O (stereo partly drawn) [A-220]	55	9.3
CC(=O)NC1[C@H]([C@H](O)[C@H](O)CNC(=O)c2cc(C)c(O)c(C)c2)O[C@@](CC(=O)N2CCOC[C@@]23CCN(C(=O)OC(C)(C)C)C3)(C(=O)O)C[C@@H]1O (stereo partly drawn) [A-221]	162	7.0
CC(=O)NC1[C@H]([C@H](O)[C@H](O)CNC(=O)c2cc(C)c(O)c(C)c2)O[C@@](CC(=O)N2CCOC[C@@]23CCN(C(=O)NC(C)(C)C)C3)(C(=O)O)C[C@@H]1O (stereo partly drawn) [A-223]	123	8.9
CC(=O)N[C@H]1[C@H]([C@H](O)[C@H](O)CNC(=O)c2cc(C)c(O)c(C)c2)O[C@@](C[C@H]2COC[C@]3(CCN(C(=O)OC(C)(C)C)C3)N2)(C(=O)O)C[C@@H]1O [A-224]	143	8.9
CC(=O)N[C@H]1[C@H]([C@H](O)[C@H](O)CNC(=O)c2cc(C)c(O)c(C)c2)O[C@@](C[C@@H]2COC[C@]3(CCN(C(=O)OC(C)(C)C)C3)N2)(C(=O)O)C[C@@H]1O [A-225]	552	6.4
CC(=O)N[C@H]1[C@H]([C@H](O)[C@H](O)CNC(=O)c2cc(C)c(O)c(C)c2)O[C@@](C[C@H]2COC[C@@]3(CCN(C(=O)OC(C)(C)C)C3)N2)(C(=O)O)C[C@@H]1O [A-227]	12	14.6
CC(=O)N[C@H]1[C@H]([C@H](O)[C@H](O)CNC(=O)c2cc(C)c(O)c(C)c2)O[C@@](C[C@H]2COC[C@@]3(CCN(C(=O)NC(C)(C)C)C3)N2)(C(=O)O)C[C@@H]1O [A-228]	14	13.4
CC(=O)N[C@H]1[C@H]([C@H](O)[C@H](O)CNC(=O)c2cc(C)c(O)c(C)c2)O[C@@](C[C@@H]2COC[C@]3(CCN(C(=O)OC(C)(C)C)C3)N2)(C(=O)O)C[C@@H]1O [A-229]	22	13.0
CC(=O)N[C@H]1[C@H]([C@H](O)[C@H](O)CNC(=O)c2cc(C)c(O)c(C)c2)O[C@@](C[C@@H]2COCC3(CCN(C(=O)OC(C)(C)C)CC3)N2)(C(=O)O)C[C@@H]1O [A-230]	10600	1.1
CC(=O)N[C@H]1[C@H]([C@H](O)[C@H](O)CNC(=O)c2cc(C)c(O)c(C)c2)O[C@@](C[C@H]2COCC3(CCN(C(=O)OC(C)(C)C)CC3)N2)(C(=O)O)C[C@@H]1O [A-231]	1410	5.2
COCc1cc2cc(C(=O)NCc3cccc(/C=C/C[C@]4(C(=O)O)C[C@H](O)[C@@H](NC(C)=O)[C@H]([C@H](O)[C@H](O)CNC(=O)c5cc(C)c(O)c(C)c5)O4)c3)ccc2[nH]1 [A-232]	74	9.8
CC(=O)N[C@H]1[C@H]([C@H](O)[C@H](O)CNC(=O)c2cc(C)c(O)c(C)c2)O[C@@](C/C=C/c2ccccc2CNC(=O)C2CCCOC2)(C(=O)O)C[C@@H]1O (stereo partly drawn) [A-233]	8990	3.0
CC(=O)N[C@H]1[C@H]([C@H](O)[C@H](O)CNC(=O)c2cc(C)c(O)c(C)c2)O[C@@](C/C=C/c2cccc(CNC(=O)c3ccc4[nH]ccc4c3)c2)(C(=O)O)C[C@@H]1O [A-234]	930	4.6
CC(=O)N[C@H]1[C@H]([C@H](O)[C@H](O)CNC(=O)c2cc(C)c(O)c(C)c2)O[C@@](C/C=C/c2cccc(CNC(=O)c3ccc4cn[nH]c4c3)c2)(C(=O)O)C[C@@H]1O [A-235]	2090	3.3
CC(=O)N[C@H]1[C@H]([C@H](O)[C@H](O)CNC(=O)c2cc(C)c(O)c(C)c2)O[C@@](C/C=C/c2cccc(CNC(=O)c3ccc4[nH]cnc4c3)c2)(C(=O)O)C[C@@H]1O [A-236]	2010	4.4
CC(=O)N[C@H]1[C@H]([C@H](O)[C@H](O)CNC(=O)c2cc(C)c(O)c(C)c2)O[C@@](C/C=C/c2cccc(CNC(=O)c3ccc4[nH]nnc4c3)c2)(C(=O)O)C[C@@H]1O [A-237]	5030	0.8
CC(=O)N[C@H]1[C@H]([C@H](O)[C@H](O)CNC(=O)c2cc(C)c(O)c(C)c2)O[C@@](C/C=C/c2cccc(CNC(=O)c3ccc4[nH]c(C)c(C)c4c3)c2)(C(=O)O)C[C@@H]1O [A-238]	347	9.2
CC(=O)N[C@H]1[C@H]([C@H](O)[C@H](O)CNC(=O)c2cc(C)c(O)c(C)c2)O[C@@](C/C=C/c2cccc(CNC(=O)c3ccc(NS(C)(=O)=O)cc3)c2)(C(=O)O)C[C@@H]1O [A-239]	1120	2.2

SMILES	EC50 [1] [nM]	DSF (dTmD) [2] [°C]
CC(=O)N[C@H]1[C@H]([C@H](O)[C@H](O)CNC(=O)c2cc(C)c(O)c(C)c2)O[C@@](C/C=C/c2cccc(CNC(=O)c3ccc(Nc4ncccn4)cc3)c2)(C(=O)O)C[C@@H]1O [A-240]	227	6.2
CC(=O)N[C@H]1[C@H]([C@H](O)[C@H](O)CNC(=O)c2cc(C)c(O)c(C)c2)O[C@@](C/C=C/c2cccc(CNC(=O)c3cccc(Nc4nccs4)c3)c2)(C(=O)O)C[C@@H]1O [A-241]	7970	5.3
CC(=O)N[C@H]1[C@H]([C@H](O)[C@H](O)CNC(=O)c2cc(C)c(O)c(C)c2)O[C@@](C/C=C/c2cccc(CNC(=O)c3ccc4[nH]ccc4c3)c2)(C(=O)O)C[C@@H]1O [A-242]	502	7.6
CC(=O)N[C@H]1[C@H]([C@H](O)[C@H](O)CNC(=O)c2cc(C)c(O)c(C)c2)O[C@@](C/C=C/c2cccc(CNC(=O)c3ccc4[nH]c(C(C)O)nc4c3)c2)(C(=O)O)C[C@@H]1O (stereo partly drawn) [A-243]	255	5.4
CC(=O)N[C@H]1[C@H]([C@H](O)[C@H](O)CNC(=O)c2cc(C)c(O)c(C)c2)O[C@@](C/C=C/c2cccc(CNC(=O)C3(C)COC3)c2)(C(=O)O)C[C@@H]1O [A-244]	9560	0.8
CC(=O)N[C@H]1[C@H]([C@H](O)[C@H](O)CNC(=O)c2cc(C)c(O)c(C)c2)O[C@@](C/C=C/c2cccc(CNC(=O)c3cccc(NCc4nc(C)cs4)c3)c2)(C(=O)O)C[C@@H]1O [A-245]	9460	1.2
CC(=O)N[C@H]1[C@H]([C@H](O)[C@H](O)CNC(=O)c2cc(C)c(O)c(C)c2)O[C@@](C/C=C/c2cccc(CNC(=O)c3cccc(NCc4cncs4)c3)c2)(C(=O)O)C[C@@H]1O [A-246]	4000	2.2
CC(=O)N[C@H]1[C@H]([C@H](O)[C@H](O)CNC(=O)c2cc(C)c(O)c(C)c2)O[C@@](C/C=C/c2cccc(CNC(=O)C3CCC(Nc4cnccn4)CC3)c2)(C(=O)O)C[C@@H]1O (stereo partly drawn) [A-247]	353	8.5
CC(=O)N[C@H]1[C@H]([C@H](O)[C@H](O)CNC(=O)c2cc(C)c(O)c(C)c2)O[C@@](C/C=C/c2cccc(CNC(=O)c3ccc4[nH]c(CCO)cc4c3)c2)(C(=O)O)C[C@@H]1O [A-248]	682	6.0
CC(=O)N[C@H]1[C@H]([C@H](O)[C@H](O)CNC(=O)c2cc(C)c(O)c(C)c2)O[C@@](C/C=C/c2cccc(CNC(=O)c3ccc4[nH]c(C(C)(C)CO)cc4c3)c2)(C(=O)O)C[C@@H]1O [A-249]	224	8.1
CC(=O)N[C@H]1[C@H]([C@H](O)[C@H](O)CNC(=O)c2cc(C)c(O)c(C)c2)O[C@@](C/C=C/c2cccc(CNC(=O)c3ccc4[nH]c(-c5c[nH]c6ccccc56)cc4c3)c2)(C(=O)O)C[C@@H]1O [A-250]	3260	8.4
CC(=O)N[C@H]1[C@H]([C@H](O)[C@H](O)CNC(=O)c2cc(C)c(O)c(C)c2)O[C@@](C/C=C/c2cccc(CNC(=O)c3cccc(NC(C)(C)C)c3)c2)(C(=O)O)C[C@@H]1O [A-251]	9790	4.3
CC(=O)N[C@H]1[C@H]([C@H](O)[C@H](O)CNC(=O)c2cc(C)c(O)c(C)c2)O[C@@](C/C=C/c2cccc(CNC(=O)c3ccc4[nH]c(-c5cccn5-c5ncccn5)nc4c3)c2)(C(=O)O)C[C@@H]1O [A-252]	578	7.6
CC(=O)N[C@H]1[C@H]([C@H](O)[C@H](O)CNC(=O)c2cc(C)c(O)c(C)c2)O[C@@](C/C=C/c2cccc(CNC(=O)C3CCC(Nc4ncccn4)CC3)c2)(C(=O)O)C[C@@H]1O (stereo partly drawn) [A-253]	195	9.6
CC(=O)N[C@H]1[C@H]([C@H](O)[C@H](O)CNC(=O)c2cc(C)c(O)c(C)c2)O[C@@](C/C=C/c2cccc(CNC(=O)c3ccc4[nH]c5c(c4c3)CCC(=O)N5C)c2)(C(=O)O)C[C@@H]1O [A-254]	193	9.2
CC(=O)N[C@H]1[C@H]([C@H](O)[C@H](O)CNC(=O)c2cc(C)c(O)c(C)c2)O[C@@](C/C=C/c2cccc(CNC(=O)C3CCC(Nc4ncccn4)C3)c2)(C(=O)O)C[C@@H]1O (stereo partly drawn) [A-255]	4460	4.2
CC(=O)N[C@H]1[C@H]([C@H](O)[C@H](O)CNC(=O)c2cc(C)c(O)c(C)c2)O[C@@](C/C=C/c2cccc(CNC(=O)C3CCC[C@H](Nc4ncccn4)C3)c2)(C(=O)O)C[C@@H]1O (stereo partly drawn) [A-256]	2170	5.1
CC(=O)N[C@H]1[C@H]([C@H](O)[C@H](O)CNC(=O)c2cc(C)c(O)c(C)c2)O[C@@](C/C=C/c2cccc(CNC(=O)c3ccc(NC(C)(C)C)cc3)c2)(C(=O)O)C[C@@H]1O [A-257]	1600	5.9
